Laboratory results taken from ChEMBL document CHEMBL6092212, “Discovery of novel substituted (Z)-N'-hydroxy-3-(3-phenylureido)benzimidamide derivatives as multifunctional molecules targeting pathological hallmarks of Alzheimer's disease” (Eur J Med Chem, 2024).
Calls of active or inactive are those of the source. No cut-off for these calls is given here.

Key:
[1] = system: Mus musculus; test: Reversal of scopolamine-induced cognitive deficit Swiss albino mouse model assessed as increase in time in platform quadrant at 1.5 mg/kg, ip measured after 5 days by Morris water maze test; type: functional, organism-based; conditions: time 5.0 day
[2] = system: Mus musculus; test: Neuroprotective activity against scopolamine-induced cognitive deficit Swiss albino mouse model assessed as increase in TRKB mRNA level at 1.5 mg/kg, ip measured after 14 days by RT-PCR analysis; type: functional, organism-based; conditions: time 14.0 day
[3] = system: Mus musculus; test: Reversal of scopolamine-induced cognitive deficit Swiss albino mouse model assessed as decrease in escape latency at 1.5 mg/kg, ip measured for 5 days by Morris water maze test; type: functional, organism-based; conditions: time 5.0 day
[4] = Antioxidant activity assessed as DPPH radical scavenging activity at 20 to 200 uM incubated for 30 mins by absorbance based analysis relative to control; type: functional; conditions: dose 20-200 µM
[5] = system: Mus musculus; test: Protection against scopolamine-associated dementia in Swiss albino mouse model assessed as increase in latency period at 1.5 mg/kg, ip measured after 14 days by Passive avoidance task method; type: functional, organism-based; conditions: time 14.0 day
[6] = system: Mus musculus; test: Neuroprotective activity against scopolamine-induced cognitive deficit Swiss albino mouse model assessed as increase in BDNF mRNA level at 1.5 mg/kg, ip measured after 14 days by RT-PCR analysis; type: functional, organism-based; conditions: time 14.0 day
[7] = system: Mus musculus; test: Reversal of scopolamine-induced cognitive deficit Swiss albino mouse model assessed as increase in number of entries in target quadrant at 10 mg/kg, ip measured after 5 days by Morris water maze test; type: functional, organism-based; conditions: time 5.0 day
[8] = system: Mus musculus; test: Reversal of scopolamine-induced cognitive deficit Swiss albino mouse model assessed as increase in time in platform quadrant at 10 mg/kg, ip measured after 5 days by Morris water maze test; type: functional, organism-based; conditions: time 5.0 day
[9] = system: Mus musculus; test: Neuroprotective activity against scopolamine-induced cognitive deficit Swiss albino mouse model assessed as increase in GAP43 mRNA level at 10 mg/kg, ip measured after 14 days by RT-PCR analysis; type: functional, organism-based; conditions: time 14.0 day
[10] = system: HMC3; test: Inhibition of ROS production in LPS/ATP-induced human HMC3 cells at 12.5 uM incubated for 24 hrs by MitoSOX Red FM staining based analysis; type: functional, cell-based
[11] = system: Mus musculus; test: Neuroprotective activity against scopolamine-induced cognitive deficit Swiss albino mouse model assessed as increase in BDNF mRNA level at 10 mg/kg, ip measured after 14 days by RT-PCR analysis; type: functional, organism-based; conditions: time 14.0 day
[12] = system: HMC3; test: Antiinflammatory activity against LPS/ATP-induced human HMC3 cells assessed as reduction in NF-kappaB level at 12.5 uM by immunocytochemistry based analysis; type: functional, cell-based
[13] = system: HMC3; test: Antiinflammatory activity against LPS/ATP-induced human HMC3 cells assessed as reduction in IL-18 level at 12.5 uM by Western blot analysis; type: functional, cell-based
[14] = system: HMC3; test: Antiinflammatory activity against LPS/ATP-induced human HMC3 cells assessed as reduction in NLRP3 level at 12.5 uM by immunocytochemistry based analysis; type: functional, cell-based
[15] = Acute toxicity in Swiss albino mouse assessed as signs of tremor at 2000 mg/kg, po measured 14 days post-administration; type: organism-based; conditions: in vivo, 336 h, time 14 day
[16] = system: HMC3; test: Inhibition of mitochondrial impairment in LPS/ATP-induced human HMC3 cells at 12.5 uM incubated for 24 hrs by Rhodamine 123/JC-1 staining based analysis; type: functional, cell-based
[17] = Acute toxicity in Swiss albino mouse assessed as signs of convulsion at 2000 mg/kg, po measured 14 days post-administration; type: organism-based; conditions: in vivo, 336 h, time 14 day
[18] = system: Mus musculus; test: Neuroprotective activity against scopolamine-induced cognitive deficit Swiss albino mouse model assessed as increase in c-FOS mRNA level at 10 mg/kg, ip measured after 14 days by RT-PCR analysis; type: functional, organism-based; conditions: time 14.0 day
[19] = biological target: T1, Acetylcholinesterase (Homo sapiens, UniProt P22303); test: Inhibition of human AChE using ATCI as substrate preincubated for 30 mins followed by substrate addition measured after 30 mins by Ellman's method
[20] = system: Mus musculus; test: Neuroprotective activity against scopolamine-induced cognitive deficit Swiss albino mouse model assessed as increase in CREB1 mRNA level at 10 mg/kg, ip measured after 14 days by RT-PCR analysis; type: functional, organism-based; conditions: time 14.0 day
[21] = system: HMC3; test: Antiinflammatory activity against LPS/ATP-induced human HMC3 cells assessed as reduction in NLRP3 level at 12.5 uM by Western blot analysis; type: functional, cell-based
[22] = Metal chelating activity assessed as compound-Fe3+ complex formation at 600 uM incubated for 24 hrs by UV spectrophotometry
[23] = Induction of NO release upto 100 uM incubated for 5 to 10 mins by Griess assay; type: functional; conditions: time 5-10 min
[24] = system: HMC3; test: Antiinflammatory activity against LPS/ATP-induced human HMC3 cells assessed as increase in vimentin level at 12.5 uM by immunocytochemistry based analysis; type: functional, cell-based
[25] = Permeability of compound in PBS at pH 7.4 at 500 uM by PAMPA; type: ADME; conditions: read-out: permeability
[26] = biological target: T1, Acetylcholinesterase; test: Mixed inhibition of human AChE using ATCI as substrate at 0.1 to 5 uM preincubated for 30 mins followed by substrate addition by Ellman's method; conditions: dose 0.1-5 µM
[27] = system: HMC3; test: Antiinflammatory activity against LPS/ATP-induced human HMC3 cells assessed as reduction in caspase-1 level at 12.5 uM by Western blot analysis; type: functional, cell-based
[28] = system: PC-12; test: Cytotoxicity against rat PC-12 cells upto 20 uM incubated for 24 hrs by MTT assay; type: toxicity, cell-based; conditions: pc-12, 24 h
[29] = biological target: Amyloid-beta precursor protein (Homo sapiens) (UniProt P05067); test: Inhibition of self-mediated Amyloid beta (1 to 42)(unknown origin) aggregation at 3.125 uM incubated for 3 days by ThT assay; conditions: time 3.0 day
[30] = Acute toxicity in Swiss albino mouse assessed as signs of abnormal behaviour at 2000 mg/kg, po measured 14 days post-administration; type: organism-based; conditions: in vivo, 336 h, time 14 day
[31] = system: Mus musculus; test: Reversal of scopolamine-induced cognitive deficit Swiss albino mouse model assessed as reduction in distance traveled to reach platform at 10 mg/kg, ip measured after 5 days by Morris water maze test; type: functional, organism-based; conditions: time 5.0 day
[32] = system: Mus musculus; test: Neuroprotective activity against scopolamine-induced cognitive deficit Swiss albino mouse model assessed as increase in PKA mRNA level at 10 mg/kg, ip measured after 14 days by RT-PCR analysis; type: functional, organism-based; conditions: time 14.0 day
[33] = Antioxidant activity assessed as inhibition of DPPH radical scavenging activity incubated for 30 mins by absorbance based analysis; type: functional
[34] = Acute toxicity in Swiss albino mouse assessed as signs of diarrhea at 2000 mg/kg, po measured 14 days post-administration; type: organism-based; conditions: in vivo, 336 h, time 14 day
[35] = system: HMC3; test: Induction of mitochondrial membrane potential stability in LPS/ATP-induced human HMC3 cells at 12.5 uM incubated for 24 hrs by Rhodamine 123/JC-1 staining based analysis; type: functional, cell-based
[36] = biological target: Microtubule-associated protein tau (Homo sapiens) (UniProt P10636); test: Inhibition of Tau (unknown origin) aggregation at 1.125 uM incubated for 3 days by ThT assay; conditions: time 3.0 day
[37] = system: Mus musculus; test: Neuroprotective activity against scopolamine-induced cognitive deficit Swiss albino mouse model assessed as increase in Nr4a2 mRNA level at 10 mg/kg, ip measured after 14 days by RT-PCR analysis; type: functional, organism-based; conditions: time 14.0 day
[38] = biological target: Cholinesterase (Equus caballus) (UniProt P81908); test: Competitive inhibition of equine BChE using BTCI as substrate at 1 to 10 uM preincubated for 30 mins followed by substrate addition by Ellman's method; conditions: dose 1-10 µM
[39] = system: Mus musculus; test: Reversal of scopolamine-induced cognitive deficit Swiss albino mouse model assessed as decrease in escape latency at 10 mg/kg, ip measured for 5 days by Morris water maze test; type: functional, organism-based; conditions: time 5.0 day
[40] = system: HMC3; test: Antiinflammatory activity against LPS/ATP-induced human HMC3 cells assessed as decrease in Iba-1 level at 12.5 uM by Western blot analysis; type: functional, cell-based
[41] = Acute toxicity in Swiss albino mouse assessed as animal survival at 2000 mg/kg, po measured 14 days post-administration; type: organism-based; conditions: in vivo, 336 h, time 14 day
[42] = system: Mus musculus; test: Protection against scopolamine-associated dementia in Swiss albino mouse model assessed as increase in latency period at 10 mg/kg, ip measured after 14 days by Passive avoidance task method; type: functional, organism-based; conditions: time 14.0 day
[43] = system: HMC3; test: Antiinflammatory activity against LPS/ATP-induced human HMC3 cells assessed as increase in Nrf2 level at 12.5 uM by Western blot analysis; type: functional, cell-based
[44] = system: Mus musculus; test: Neuroprotective activity against scopolamine-induced cognitive deficit Swiss albino mouse model assessed as increase in PSD95 mRNA level at 10 mg/kg, ip measured after 14 days by RT-PCR analysis; type: functional, organism-based; conditions: time 14.0 day
[45] = system: Mus musculus; test: Neuroprotective activity against scopolamine-induced cognitive deficit Swiss albino mouse model assessed as increase in TRKB mRNA level at 10 mg/kg, ip measured after 14 days by RT-PCR analysis; type: functional, organism-based; conditions: time 14.0 day
[46] = system: HMC3; test: Antiinflammatory activity against LPS/ATP-induced human HMC3 cells assessed as reduction in nuclear translocation of NF-kappaB at 12.5 uM by immunocytochemistry based analysis; type: functional, cell-based
[47] = biological target: Cholinesterase (Homo sapiens, UniProt P06276); test: Inhibition of human BChE using BTCI as substrate preincubated for 30 mins followed by substrate addition measured after 30 mins by Ellman's method
[48] = system: HMC3; test: Antiinflammatory activity against LPS/ATP-induced human HMC3 cells assessed as reduction in IL-1beta level at 12.5 uM by Western blot analysis; type: functional, cell-based
[49] = system: HMC3; test: Inhibition of LPS/ATP-induced cytotoxicity against human HMC3 cells at 12.5 uM incubated for 24 hrs by MTT assay; type: functional, cell-based
[50] = Acute toxicity in Swiss albino mouse assessed as signs of over-weight gain at 2000 mg/kg, po measured 14 days post-administration; type: organism-based; conditions: in vivo, 336 h, time 14 day
[51] = biological target: Cholinesterase (Equus caballus, UniProt P81908); test: Inhibition of equine BChE using BTCI as substrate preincubated for 30 mins followed by substrate addition measured after 30 mins by Ellman's method
Cholinesterase (Equus caballus, UniProt P81908), sequence (P81908 whole entry): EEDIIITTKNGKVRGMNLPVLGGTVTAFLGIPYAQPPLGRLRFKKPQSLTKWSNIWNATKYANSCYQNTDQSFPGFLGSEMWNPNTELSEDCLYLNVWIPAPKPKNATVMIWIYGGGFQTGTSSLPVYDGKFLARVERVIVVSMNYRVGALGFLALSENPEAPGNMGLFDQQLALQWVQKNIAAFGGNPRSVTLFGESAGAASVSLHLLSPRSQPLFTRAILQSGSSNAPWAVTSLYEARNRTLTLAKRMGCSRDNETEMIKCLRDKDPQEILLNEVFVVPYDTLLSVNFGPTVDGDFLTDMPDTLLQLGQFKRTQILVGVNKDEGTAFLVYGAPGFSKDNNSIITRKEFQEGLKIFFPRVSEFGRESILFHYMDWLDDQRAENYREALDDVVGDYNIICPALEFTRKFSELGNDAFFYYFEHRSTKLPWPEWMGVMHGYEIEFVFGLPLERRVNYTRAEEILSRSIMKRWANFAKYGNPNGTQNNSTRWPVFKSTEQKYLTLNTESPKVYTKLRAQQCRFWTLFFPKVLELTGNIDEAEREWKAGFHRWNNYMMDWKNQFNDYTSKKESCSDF

T1 sequence (P22303 whole entry): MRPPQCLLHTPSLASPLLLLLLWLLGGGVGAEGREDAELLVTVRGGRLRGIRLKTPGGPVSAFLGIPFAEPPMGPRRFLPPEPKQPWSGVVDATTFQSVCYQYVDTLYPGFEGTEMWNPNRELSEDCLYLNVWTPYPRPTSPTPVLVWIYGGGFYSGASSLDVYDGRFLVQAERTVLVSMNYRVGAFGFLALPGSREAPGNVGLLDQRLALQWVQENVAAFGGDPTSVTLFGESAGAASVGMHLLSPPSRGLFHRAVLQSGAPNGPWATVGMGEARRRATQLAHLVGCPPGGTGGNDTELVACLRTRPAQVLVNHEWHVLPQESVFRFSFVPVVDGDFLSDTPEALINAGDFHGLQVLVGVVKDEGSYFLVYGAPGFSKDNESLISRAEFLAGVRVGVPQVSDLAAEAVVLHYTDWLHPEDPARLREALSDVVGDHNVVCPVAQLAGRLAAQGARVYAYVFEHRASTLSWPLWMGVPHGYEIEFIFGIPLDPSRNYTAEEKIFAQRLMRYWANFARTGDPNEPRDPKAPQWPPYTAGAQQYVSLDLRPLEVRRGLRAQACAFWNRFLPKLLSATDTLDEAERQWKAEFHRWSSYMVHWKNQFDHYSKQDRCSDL
Cholinesterase (Homo sapiens, UniProt P06276), sequence (P06276 whole entry): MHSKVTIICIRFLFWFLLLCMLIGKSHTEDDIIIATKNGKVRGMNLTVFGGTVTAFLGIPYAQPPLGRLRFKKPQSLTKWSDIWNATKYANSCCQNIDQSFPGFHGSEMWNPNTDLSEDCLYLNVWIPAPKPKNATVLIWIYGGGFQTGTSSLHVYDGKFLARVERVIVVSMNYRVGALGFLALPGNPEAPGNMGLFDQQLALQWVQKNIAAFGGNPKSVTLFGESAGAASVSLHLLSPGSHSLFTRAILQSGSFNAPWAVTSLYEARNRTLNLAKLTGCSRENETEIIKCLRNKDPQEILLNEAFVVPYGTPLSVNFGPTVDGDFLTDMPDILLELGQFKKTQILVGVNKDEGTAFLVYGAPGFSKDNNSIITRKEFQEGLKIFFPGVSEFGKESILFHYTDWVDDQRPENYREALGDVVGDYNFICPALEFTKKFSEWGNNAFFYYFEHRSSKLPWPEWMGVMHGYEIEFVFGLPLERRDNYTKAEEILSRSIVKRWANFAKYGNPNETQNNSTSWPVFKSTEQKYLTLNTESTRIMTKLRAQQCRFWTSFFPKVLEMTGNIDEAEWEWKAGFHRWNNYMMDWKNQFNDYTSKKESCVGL
Amyloid-beta precursor protein (Homo sapiens), sequence (P05067 whole entry): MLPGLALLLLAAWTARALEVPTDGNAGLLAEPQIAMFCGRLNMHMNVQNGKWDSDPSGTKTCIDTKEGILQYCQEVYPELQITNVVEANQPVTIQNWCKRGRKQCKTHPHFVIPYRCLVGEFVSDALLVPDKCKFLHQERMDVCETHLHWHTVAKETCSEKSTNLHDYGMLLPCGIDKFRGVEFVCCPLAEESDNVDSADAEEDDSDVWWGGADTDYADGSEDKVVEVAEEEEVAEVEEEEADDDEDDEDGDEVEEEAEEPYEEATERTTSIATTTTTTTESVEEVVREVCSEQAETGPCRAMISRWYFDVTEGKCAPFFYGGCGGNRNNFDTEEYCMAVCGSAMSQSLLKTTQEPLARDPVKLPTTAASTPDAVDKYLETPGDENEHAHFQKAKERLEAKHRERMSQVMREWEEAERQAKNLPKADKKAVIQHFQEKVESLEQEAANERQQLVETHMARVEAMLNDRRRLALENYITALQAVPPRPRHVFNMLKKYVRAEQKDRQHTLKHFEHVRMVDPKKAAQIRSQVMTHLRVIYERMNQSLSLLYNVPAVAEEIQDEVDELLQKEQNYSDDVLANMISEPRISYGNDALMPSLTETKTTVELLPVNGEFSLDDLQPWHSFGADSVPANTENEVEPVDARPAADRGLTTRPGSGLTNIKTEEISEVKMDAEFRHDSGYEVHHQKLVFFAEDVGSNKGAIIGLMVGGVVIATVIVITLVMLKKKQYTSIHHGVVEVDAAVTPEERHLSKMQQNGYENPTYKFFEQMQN
Microtubule-associated protein tau (Homo sapiens), sequence (P10636 whole entry): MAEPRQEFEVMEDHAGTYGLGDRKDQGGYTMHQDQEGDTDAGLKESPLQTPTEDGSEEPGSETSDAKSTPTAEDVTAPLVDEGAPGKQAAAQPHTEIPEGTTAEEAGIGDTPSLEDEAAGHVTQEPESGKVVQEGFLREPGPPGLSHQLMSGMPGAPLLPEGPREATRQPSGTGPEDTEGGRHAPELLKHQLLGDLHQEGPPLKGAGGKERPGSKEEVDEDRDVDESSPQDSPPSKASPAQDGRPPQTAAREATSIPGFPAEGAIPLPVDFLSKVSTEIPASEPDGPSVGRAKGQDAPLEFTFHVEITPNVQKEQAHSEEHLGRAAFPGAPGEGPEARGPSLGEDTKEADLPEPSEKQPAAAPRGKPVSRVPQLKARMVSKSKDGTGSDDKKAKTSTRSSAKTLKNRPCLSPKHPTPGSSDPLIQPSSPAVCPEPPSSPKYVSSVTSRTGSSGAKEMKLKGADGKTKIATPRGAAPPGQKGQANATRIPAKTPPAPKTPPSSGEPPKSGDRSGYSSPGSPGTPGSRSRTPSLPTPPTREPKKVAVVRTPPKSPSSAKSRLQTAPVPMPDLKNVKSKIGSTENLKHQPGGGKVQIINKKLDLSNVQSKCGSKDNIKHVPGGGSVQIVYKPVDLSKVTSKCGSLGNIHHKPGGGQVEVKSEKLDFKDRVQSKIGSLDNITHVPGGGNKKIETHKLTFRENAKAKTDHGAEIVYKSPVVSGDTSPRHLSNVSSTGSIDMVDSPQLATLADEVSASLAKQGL
Cholinesterase (Equus caballus), sequence (P81908 whole entry): as the sequence (P81908 whole entry) above

CCN(C)C(=O)Oc1cccc([C@H](C)N(C)C)c1
Activity [1]: Active | Activity [2]: Active | Activity [3]: Active | Activity [4]: 4.73% | Activity [5]: Active | Activity [6]: Active

N/C(=N\O)c1cccc(NC(=O)Nc2cccc(F)c2)c1
Activity [7]: Active | Activity [8]: Active | Activity [9]: Active | inhibition [10]: Active | Activity [11]: Active | Activity [12]: Active | Activity [13]: Active | Activity [14]: Active | Activity [15]: Non-toxic | inhibition [16]: Active | Activity [17]: Non-toxic | Activity [18]: Active | IC50 [19]: 1.72 µM | Activity [20]: Active | Activity [21]: Active | Activity [22]: inactive | Activity [23]: inactive | Activity [24]: Active | Papp at 500 µM [25]: 10.7 ×10⁻⁶ cm/s | inhibition [26]: Active | Activity [27]: Active | Activity [28]: Non-toxic | inhibition [29]: Active | Activity [30]: Non-toxic | Activity [31]: Active | Activity [32]: Active | IC50 [33]: 16.1 µM | Activity [34]: Non-toxic | Activity [35]: Active | inhibition [36]: Active | Activity [37]: Active | inhibition [38]: Active | Activity [39]: Active | Activity [40]: Active | Activity [41]: Non-toxic | Activity [42]: Active | Activity [43]: Active | Activity [44]: Active | Activity [4]: 46.1% | Activity [45]: Active | Activity [46]: Active | IC50 [47]: 5.21 µM | Activity [48]: Active | inhibition [49]: Active | Activity [50]: Non-toxic | IC50 [51]: 6.69 µM
